The text below walks through data of US20190315711A1 (eXIthera Pharmaceuticals, Inc., priority 2016, published 2019).

One data set concerns the target T1, Trypsin (Bos taurus, UniProt P00760).
T1 construct: gene PRSS1
T1 sequence (P00760 24-246): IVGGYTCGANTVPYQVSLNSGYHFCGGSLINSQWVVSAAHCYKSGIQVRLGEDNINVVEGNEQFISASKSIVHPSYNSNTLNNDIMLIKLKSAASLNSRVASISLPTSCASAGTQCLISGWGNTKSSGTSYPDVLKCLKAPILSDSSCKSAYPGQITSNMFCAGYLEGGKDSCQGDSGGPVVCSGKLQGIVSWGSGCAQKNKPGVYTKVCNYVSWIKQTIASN
Put plainly: Dose response assay for protease inhibitors: trypsin. The class given is biochemical. The note with it: ratio versus Factor XIa. Here is the method:
• Assay buffer: 20 mM Hepes, pH 7.4; 150 mM NaCl; 0.02% Tween 20 • Compounds: 10 mM stocks in DMSO • Substrate: 20 mM Glp-Pro-Arg-AMC, 25 mg/2.3 mL H2O (store at +4° C.) [Factor XIa, thrombin, and trypsin] • 20 mM Pro-Phe-Arg-AMC (Bachem I-1295), 25 mg/2.2 mL H2O or Boc-Leu-Gly-Arg-AMC (Bachem I-1105), 25 mg/2.07 mL H2O (store at +4° C.) [Factor Xa] • Enzyme: Factor XIa; 0.25 M in 50% glycerol (20 μg/mL) • Trypsin; 0.2 μM in 50% glycerol (4.8 μg/mL) • Thrombin; 0.2 μM in 50% glycerol (7.34 μg/mL) • Factor Xa; 0.2 μM in 50% glycerol (9.2 μg/mL)
• 1. Dilute the substrate to 100 μM in assay buffer (30 μL/6 mL). The enzyme is diluted to 0.5 nM just prior to use (12 L/6 mL for Factor XIa; 15 μL/6 mL for all of the rest.) • 2. Pipette 50 μL of substrate into each well of the 96 well (12×8) microtiter plate. (Column 1 is used as the 100% activity control and receives no compound, and Column 12 is the blank and receives no enzyme.) Add an additional 46 μL to column 2. • 3. Pipette 4 μL of each compound into the appropriate well in column 2 of the plate (unknowns assayed in triplicate, standard assayed in duplicate). The final compound concentration will be 1/50th of the stock. • 4. Serially two-fold dilute the compound by mixing the sample in column 2, removing 50 μL to the next well (column 3), mix and remove to column 4, etc. until column 11. After mixing column 11, remove 50 μL and discard. • 5. Pipette 50 μL of buffer into column 12. Initiate the reaction by adding 50 μL of enzyme solution to each well of columns 1-11 as rapidly as possible. • 6. Read the plate in a spectrophotometer (SpectraMax) at 30° C., wherein each well is measured every 60 s for 30 min. For Factor Xa assays, each well is measured every 1 min for a total of 60 min. • 7. For Factor XIa assays, the compounds are assayed, in duplicate, at 3 different starting concentrations, 20, 2, and 0.2 μM; 1:10, 1:100, and 1:1000 dilution of 10 mM stock or at 2, 0.2, and 0.02 μM; 1:100, 1:1000, and 1:10,000 dilution of 10 mM stock. Data for each concentration are combined for graphing and data fitting. • 8. Data can be used both for estimation of IC50 and for estimation of Kon.

Data set [1] in a line: Caco-2 cell permeability assay (A-B and B-A). Format: in vitro ADME. The note with it: human; for Papp A→B at 60 min, 10 μM: A-B direction; for Papp B→A at 40 min, 10 μM: B-A direction. The essentials:
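Caco-2 monolayers were used 21-25 days post-seeding, with compound at 10 μM (1% DMSO) in HBSS-MES pH 6.5 or HBSS-HEPES pH 7.4 on the donor side. Incubation was at 37° C with shaking for 60 min (A−B) or 40 min (B−A). Donor and receiver samples were quantified by HPLC-MS/MS, and Papp and recovery were calculated.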

Data set [2] in a line: Plasma protein binding by equilibrium dialysis. Format: in vitro ADME. To be noted: both sexes, pooled plasma, pH 7.4, human plasma protein binding, read-out: PPB. On the procedure:
The following procedure was used to determine the plasma protein binding of a test compound in pooled plasma from human (mixed gender) via equilibrium dialysis in a 96-well plate format. The dialysate compartment was loaded with phosphate-buffered saline (pH 7.4) and the sample side was loaded with plasma spiked with the test compound at a concentration of 10 μM. After loading, samples were covered and incubated for 4 hours at 37° C. After incubation, each compartment was sampled, diluted with acetonitrile/buffer and centrifuged. The supernatants were analyzed by HPLC-MS/MS. The analyte peak areas obtained from HPLC-MS/MS analysis of each sample were used to calculate protein binding according to the following equation (Equation 4):
where: AREAp=Peak area of analyte in protein matrix; AREAb=Peak area of analyte in buffer. The amount measured in the plasma compartment included both free and bound drug, while that on the buffer side represented free drug only; the differences were used to calculate the percentage plasma protein bound. Three reference compounds were tested in each assay: acebutolol, quinidine and warfarin.

As to `CC[C@@H](NC(=O)N1C(=O)[C@H](Cc2ccnc(N)c2)[C@H]1C(=O)N(C)c1ncncn1)c1ccccc1` [Compound 83], the “Ratio: Trypsin/FXIa” value on Trypsin is listed as “H (“H” indicates 101-1000)”. In addition, in data set [1], the Papp A→B at 60 min, 10 μM is at most 10 ×10⁻⁶ cm/s and the Papp B→A at 40 min, 10 μM was above 50 ×10⁻⁶ cm/s. Further, the fraction unbound at 4 h, 10 μM in data set [2] is 0.1 to 0.5.
On to `CC[C@@H](NC(=O)N1C(=O)[C@H](Cc2ccnc(N)c2)[C@H]1C(=O)N(C)c1ccncc1)c1cccc(Cl)c1` [Compound 90], for which the “Ratio: Trypsin/FXIa” value at Trypsin is “G (“G” indicates 1-100)”. In data set [1], the Papp A→B at 60 min, 10 μM is at most 10 ×10⁻⁶ cm/s and the Papp B→A at 40 min, 10 μM was in the range of 11 to 30 ×10⁻⁶ cm/s. The fraction unbound at 4 h, 10 μM in data set [2] is below 0.05.
Regarding `CC[C@@H](NC(=O)N1C(=O)[C@H](Cc2ccnc(N)c2)[C@H]1C(=O)N(CC)c1ncccn1)C1CCCCC1` [Compound 39], the “Ratio: Trypsin/FXIa” value on Trypsin was “G (“G” indicates 1-100)”. In data set [1], this molecule returned a Papp A→B at 60 min, 10 μM of 11 to 30 ×10⁻⁶ cm/s and a Papp B→A at 40 min, 10 μM of 11 to 30 ×10⁻⁶ cm/s.
In the case of `CC[C@@H](NC(=O)N1C(=O)[C@H](Cc2ccnc(N)c2)[C@H]1C(=O)N(C)c1ncccn1)c1ccccc1` [Compound 84], at Trypsin, the “Ratio: Trypsin/FXIa” value is “G (“G” indicates 1-100)”. In data set [1], this molecule came in with a Papp A→B at 60 min, 10 μM of at most 10 ×10⁻⁶ cm/s and a basolateral-to-apical permeability (Papp B→A) at 40 min, 10 μM of 31 to 50 ×10⁻⁶ cm/s. Also, the fraction unbound at 4 h, 10 μM in data set [2] was 0.1 to 0.5.
As for `CC[C@@H](NC(=O)N1C(=O)[C@H](Cc2ccnc(N)c2)[C@H]1C(=O)N(C)c1ccncc1)c1cccc(C)c1` [Compound 87], the “Ratio: Trypsin/FXIa” value at Trypsin is on record as “G (“G” indicates 1-100)”. In data set [1], this molecule returned a Papp A→B at 60 min, 10 μM of at most 10 ×10⁻⁶ cm/s and a basolateral-to-apical permeability (Papp B→A) at 40 min, 10 μM of 31 to 50 ×10⁻⁶ cm/s. Further, the fraction unbound at 4 h, 10 μM in data set [2] was below 0.05.
For `CCC[C@@H](NC(=O)N1C(=O)[C@H](Cc2ccnc(N)c2)[C@H]1C(=O)N(C)c1ccncc1)c1ccccc1` [Compound 86] the same measures were “G (“G” indicates 1-100)”, at most 10 ×10⁻⁶ cm/s, 31 to 50 ×10⁻⁶ cm/s and below 0.05.
For `CCC[C@@H](NC(=O)N1C(=O)[C@H](Cc2ccnc(N)c2)[C@H]1C(=O)N(C)c1ccccc1)C1CCCCC1` [Compound 50] the same measures were “G (“G” indicates 1-100)”, 31 to 50 ×10⁻⁶ cm/s, at most 10 ×10⁻⁶ cm/s and below 0.05.
Taken in the same sequence, the figures for `CC[C@@H](NC(=O)N1C(=O)[C@H](Cc2ccnc(N)c2)[C@H]1C(=O)N(C)c1ccncc1)c1cccnc1` [Compound 59] were “G (“G” indicates 1-100)”, at most 10 ×10⁻⁶ cm/s, at most 10 ×10⁻⁶ cm/s and below 0.5.
In the case of `CN(C(=O)[C@@H]1[C@@H](Cc2ccnc(N)c2)C(=O)N1C(=O)N[C@@H](C1CC1)C(F)(F)F)c1ccncc1` [Compound 77], in data set [1], the Papp A→B at 60 min, 10 μM was at most 10 ×10⁻⁶ cm/s and the Papp B→A at 40 min, 10 μM fell in the range of 31 to 50 ×10⁻⁶ cm/s. In addition, the fraction unbound at 4 h, 10 μM in data set [2] is below 0.5.
With `Cc1ccccc1N(C)C(=O)[C@@H]1[C@@H](Cc2ccnc(N)c2)C(=O)N1C(=O)N[C@@H](C1CCCCC1)C(F)(F)F` [Compound 15], on Trypsin, the “Ratio: Trypsin/FXIa” value is on record as “G (“G” indicates 1-100)”. In data set [1], this molecule returned a Papp A→B at 60 min, 10 μM of 11 to 30 ×10⁻⁶ cm/s and a Papp B→A at 40 min, 10 μM of at most 10 ×10⁻⁶ cm/s. Further, the fraction unbound at 4 h, 10 μM in data set [2] is below 0.05.
For `CC[C@@H](NC(=O)N1C(=O)[C@H](Cc2ccnc(N)c2)[C@H]1C(=O)N(C)c1ncccn1)c1cccnc1` [Compound 61], on Trypsin, the “Ratio: Trypsin/FXIa” value is reported as “G (“G” indicates 1-100)”. Moreover, in data set [1], the Papp A→B at 60 min, 10 μM is at most 10 ×10⁻⁶ cm/s and the apparent permeability from basolateral to apical (Papp B→A) at 40 min, 10 μM lay in the range of 11 to 30 ×10⁻⁶ cm/s. For the same molecule, the fraction unbound at 4 h, 10 μM in data set [2] was below 0.5.
For `CC[C@@H](NC(=O)N1C(=O)[C@H](Cc2ccnc(N)c2)[C@H]1C(=O)N(C)c1ccncc1)c1cccc(OC)c1` [Compound 100] the same measures were “G (“G” indicates 1-100)”, at most 10 ×10⁻⁶ cm/s, 31 to 50 ×10⁻⁶ cm/s and 0.1 to 0.5.
For `CN(C(=O)[C@@H]1[C@@H](Cc2ccnc(N)c2)C(=O)N1C(=O)N[C@@H](C1CCCCC1)C(F)(F)F)c1ccncc1` [Compound 18] the same measures were “G (“G” indicates 1-100)”, 11 to 30 ×10⁻⁶ cm/s, 11 to 30 ×10⁻⁶ cm/s and 0.1 to 0.5.
Taken in the same sequence, the figures for `CN(C(=O)[C@@H]1[C@@H](Cc2ccnc(N)c2)C(=O)N1C(=O)N[C@@H](C1CCCCC1)C(F)(F)F)c1cccc(F)c1` [Compound 22] were “G (“G” indicates 1-100)”, 11 to 30 ×10⁻⁶ cm/s, at most 10 ×10⁻⁶ cm/s and below 0.05.
For the molecule `CC[C@@H](NC(=O)N1C(=O)[C@H](Cc2ccnc(N)c2)[C@H]1C(=O)N(C)c1ncccn1)c1cccc(Cl)c1` [Compound 121], at Trypsin, the “Ratio: Trypsin/FXIa” value was “G (“G” indicates 1-100)”. Besides, in data set [1], the Papp A→B at 60 min, 10 μM was in the range of 11 to 30 ×10⁻⁶ cm/s and the apparent permeability from basolateral to apical (Papp B→A) at 40 min, 10 μM lay within 11 to 30 ×10⁻⁶ cm/s. For the same molecule, the fraction unbound at 4 h, 10 μM in data set [2] lay in the range of 0.05 to 0.09.
For the molecule `CC[C@@H](NC(=O)N1C(=O)[C@H](Cc2cc(C)nc(N)c2)[C@H]1C(=O)N(C)c1ccccc1)c1cccc(Cl)c1` [Compound 120], the “Ratio: Trypsin/FXIa” value at Trypsin was “G (“G” indicates 1-100)”. Also, in data set [1], the Papp A→B at 60 min, 10 μM lay in the range of 11 to 30 ×10⁻⁶ cm/s and the Papp B→A at 40 min, 10 μM is at most 10 ×10⁻⁶ cm/s. Besides, in data set [2], the fraction unbound at 4 h, 10 μM is below 0.05.
Taken in the same sequence, the figures for `CC[C@@H](NC(=O)N1C(=O)[C@H](Cc2ccnc(N)c2)[C@H]1C(=O)N(C)c1ccncc1)c1ccc(Cl)cc1` [Compound 89] were “G (“G” indicates 1-100)”, at most 10 ×10⁻⁶ cm/s, 31 to 50 ×10⁻⁶ cm/s and 0.05 to 0.09.
Taken in the same sequence, the figures for `CC[C@@H](NC(=O)N1C(=O)[C@H](Cc2ccnc(N)c2)[C@H]1C(=O)N(C)c1ncncn1)C1CCCCC1` [Compound 81] were “H (“H” indicates 101-1000)”, 11 to 30 ×10⁻⁶ cm/s, 11 to 30 ×10⁻⁶ cm/s and below 0.05.
For `CC[C@@H](NC(=O)N1C(=O)[C@H](Cc2ccnc(N)c2)[C@H]1C(=O)N(C)c1ccncc1)c1cccc(C#N)c1` [Compound 99] the same measures were “G (“G” indicates 1-100)”, at most 10 ×10⁻⁶ cm/s, 11 to 30 ×10⁻⁶ cm/s and 0.1 to 0.5.
Regarding `CN(C(=O)[C@@H]1[C@@H](Cc2ccnc(N)c2)C(=O)N1C(=O)N[C@@H](C1CCCCC1)C(F)(F)F)c1cccnc1` [Compound 17], the “Ratio: Trypsin/FXIa” value at Trypsin is given as “G (“G” indicates 1-100)”. In data set [1], this molecule came in with a Papp A→B at 60 min, 10 μM of 11 to 30 ×10⁻⁶ cm/s and a Papp B→A at 40 min, 10 μM of 11 to 30 ×10⁻⁶ cm/s. Also, the fraction unbound at 4 h, 10 μM in data set [2] was in the range of 0.1 to 0.5.
For `CN(C(=O)[C@@H]1[C@@H](Cc2ccnc(N)c2)C(=O)N1C(=O)N[C@@H](C1CC1)C(F)(F)F)c1ncccn1` [Compound 78], in data set [1], the Papp A→B at 60 min, 10 μM is 11 to 30 ×10⁻⁶ cm/s and the Papp B→A at 40 min, 10 μM was above 50 ×10⁻⁶ cm/s. For the same molecule, in data set [2], the fraction unbound at 4 h, 10 μM fell in the range of 0.1 to 0.5.
